The values that follow are results of earlier work, collected in patent US6500409B1, “Synergistic antiplaque/antigingivitis oral composition” (Colgate Palmolive Company, priority 2000, dated 2002).

In one data set the test system is S. mutans. The following applies: in vitro.
Data set [1] relates to plaque adherence to teeth. The conditions noted are these: in vitro.

Turning to `C=CCc1ccc(O)c(-c2ccc(O)c(CC=C)c2)c1` [honokiol], the “Bactericidal activity in MIC test, in words” value with S. mutans was “bactericidal”. Also, the “Inhibition of plaque adherence to teeth, in words” value in data set [1] is “not found to be inhibitory”.
For the molecule `C=CCc1ccc(O)c(-c2cc(CC=C)ccc2O)c1` [magnolol], in the data set with S. mutans, the “Bactericidal activity in MIC test, in words” value is “bactericidal”. The “Inhibition of plaque adherence to teeth, in words” value in data set [1] was “not found to be inhibitory”.
